From PubChem BioAssay (NCI)
Where “and” joins values, the source holds several entries; their conditions need not be identical. Equal entries are not always repeated.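 The compound was tested at five concentrations on cells cultured in 96-well plates, with a 48-hour exposure period. Abbreviation: GI50, concentration required for 50% inhibition of growth. The concentration for full growth arrest is given as TGI.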

Assays:
Assay in all cases: NCI-60 cell line screen, 48 h
HCT-116 colon = test system: HCT-116 colon
SN12C renal = test system: SN12C renal
U251 CNS = test system: U251 CNS
OVCAR-8 ovarian = test system: OVCAR-8 ovarian
SF-295 CNS = test system: SF-295 CNS
HT29 colon = test system: HT29 colon
HOP-62 NSCLC = test system: HOP-62 NSCLC
MDA-MB-231 breast = test system: MDA-MB-231 breast
OVCAR-4 ovarian = test system: OVCAR-4 ovarian
NCI/ADR-RES ovarian = test system: NCI/ADR-RES ovarian
ACHN renal = test system: ACHN renal
MALME-3M melanoma = test system: MALME-3M melanoma

Structure (SMILES)	TGI (HCT-116 colon) [µM]	TGI (SN12C renal) [µM]	TGI (U251 CNS) [µM]	TGI (OVCAR-8 ovarian) [µM]	TGI (SF-295 CNS) [µM]	TGI (HT29 colon) [µM]	TGI (HOP-62 NSCLC) [µM]	TGI (MDA-MB-231 breast) [µM]	TGI (OVCAR-4 ovarian) [µM]	TGI (NCI/ADR-RES ovarian) [µM]	TGI (ACHN renal) [µM]	TGI (MALME-3M melanoma) [µM]	GI50 (MDA-MB-231 breast)
CC[C@@H](/C=C\CCC1(C[C@@H](N)CCC=C(C)C)OCCO1)O[Si](C(C)C)(C(C)C)C(C)C	31.4	31.6	35.1	26.4	37.4	32	48.2	33.6	36.8	33.9	32	–	–
O=S(=O)(OI(O)CC(F)(F)F)C(F)(F)F	> 100	> 100	> 100	> 100	> 100	> 100	> 100	> 100	> 100	> 100	> 100	–	–
O=C(c1ccccc1)c1c(CC(O)c2ccccc2)n(C(=O)c2ccccc2)c2ccccc12 (centres undefined)	> 100	–	> 100	> 100	> 100	> 100	> 100	–	> 100	–	> 100	> 100	–
COc1ccc(CNC(=O)[C@H](Cc2ccc(O)cn2)NC(C)=O)cc1	> 100	> 100	> 100	–	> 100	> 100	> 100	–	> 100	> 100	> 100	–	–
Cc1c2c(ccc3ccccc32)c[n+]2ccccc12	> 100	–	13.8	60.1	22.5	> 100	26.7	–	28.9	–	> 100	6.98	–
O=C(/C=C/c1ccc(O)c(O)c1)NCCc1ccc(-c2ccccc2)cc1	> 100	–	–	> 100	> 100	> 100	> 100	–	> 100	> 100	–	53.9	–
O=C(O)C12C3CCC(O3)C1(C(=O)O)C1CCC2O1 (centres undefined)	> 100	> 100	> 100	> 100	> 100	> 100	> 100	> 100	–	> 100	> 100	> 100	42.2 µM and 85.8 µM
CC(=O)OCC(OC(C)=O)C(OC(C)=O)C(OC(C)=O)C(/C=N\Nc1nc2ccccc2c(=O)[nH]1)=N/Nc1nc2ccccc2c(=O)[nH]1 (centres undefined)	> 100	> 100	> 100	> 100	> 100	> 100	> 100	> 100	–	> 100	> 100	> 100	–
COc1cc(C23OCC(Cc4cc5c(cc42)OCO5)C3CO)cc(OC)c1OC (centres undefined)	> 100	–	43.8	> 100	> 22.5	> 100	> 100	> 84.4	> 100	5.51	> 100	> 100	–
CC(=O)Oc1c2oc3cc(O)c(O)cc3c2c(OC(C)=O)c2oc3cc(O)c(O)cc3c12	38.2	58.6	3.44	50.2	30.3	70.9	35.9	–	62.3	86.7	74.8	> 100	–
COc1ccccc1NC(=S)Nc1cc(C)ccn1	> 100	> 100	> 100	> 100	> 100	> 100	> 100	60.7	> 100	> 100	–	> 100	–
COc1ccc(C[C@H](N)C(=O)N2C[C@@H](CO)C[C@@H](n3cnc4c(N(C)C)ncnc43)C2)cc1	> 100	–	> 100	> 100	> 100	> 100	> 100	–	–	–	–	> 100	–
Cn1c2c3c(F)c(F)ccc3nc-2cc2ccccc21	–	6.23	12.9	16.3	5.69	12.1	6.92	20.8	22.9	7.68	4.68	14.1	–
Cc1cc(C)n(C(=O)CSc2nnc(SCC(=O)n3nc(C)cc3C)s2)n1	> 100	> 100	> 100	> 100	> 100	–	> 100	> 100	> 100	> 100	> 100	–	–
N#Cc1c(-c2ccccc2)c(C#N)c(=O)n(C2OC(CO)C(O)C(O)C2O)c1S (centres undefined)	–	> 100	–	> 100	> 100	> 100	> 100	> 100	–	> 100	> 100	> 100	–
CCOC(=O)N1[C@@H]2CCC[C@@H]2C(=O)[C@@H]2CCC[C@@H]21	> 100	> 100	> 100	> 100	–	> 100	> 100	> 100	> 100	> 100	> 100	–	–
NC(=O)C(Nc1ccc(Cl)cc1)c1cc2cc(Br)ccc2nc1Cl (centres undefined)	> 50	> 50	–	> 50	> 50	> 50	> 50	> 50	> 50	> 50	> 50	> 50	–
OC(c1ccccc1)C(F)(F)c1nc2ccccc2o1 (centres undefined)	> 100	–	> 100	> 100	> 100	> 100	> 100	> 100	> 100	> 100	> 100	–	–
Cn1c(=O)oc2cc(Br)ccc21	> 100	> 100	–	> 100	> 100	> 100	> 100	> 100	> 100	> 100	> 100	> 100	–
C[N+](C)([O-])Cc1cc(-c2ccccc2)ccc1O	> 100	> 100	> 100	–	> 100	> 100	> 100	> 100	> 100	> 100	> 100	> 100	–
O=C1NC(S(=O)(=O)O)=NNC12c1ccccc1-c1ccccc12	> 10	> 10	–	> 10	> 10	> 10	> 10	> 10	> 10	> 10	> 10	> 10	–
